Results on five molecules are retold here after patent US7022843B1, “β,β′-dihydroxy meso-substituted chlorins, isobacteriochlorins, and bacteriochlorins” (priority 1999, dated 2006).

Where “and” joins values, the source holds several entries; their conditions need not be identical. Equal entries are not always repeated.

One data set has as its system serum proteins. The note with it: normal dose used for PDT (3–5 mg/kg body weight); cited from earlier work.
In data set [1] the test system is L1210 cells. Description: Phototoxicity in L1210 cells, MTT viability assay. The data set is classed as cell-based. To be noted: phototoxicity. Here is the method:
The above described compounds were tested in vitro for phototoxicity and dark toxicity in L1210 cells as described in the Example section below. Twenty four compounds which were tested for cytotoxicity are listed in Table 3 below along with BPD-MA.
(§1) Phototoxicity was determined with L11210 cells in the presence of the compound as follows: the L1210 cells were exposed to varying concentrations of the compounds in 96-well microtiter plates for one hour at 37° C. and 5% CO2. No fetal calf serum (FCS) was added at this time. The plate was then illuminated for one hour after which a 10% aqueous FCS solution was added to the wells. The plates were then returned to the CO2 incubator overnight. After incubation, the cells were assayed for viability using the MTT assay (Mossman, T. J. Immunol. Meth. 1983, 65, 55).

In data set [2] the test system is tumors. The note with it: in sensitizing tumors; cited from earlier work.
Data set [3] deals with tumors. To be noted: cited from earlier work.
The test system of another data set is tumor. To be noted: in vivo; cited from earlier work.
The test system of data set [4] is L1210 cells. Briefly: Dark cytotoxicity in L1210 cells (plates wrapped in aluminum foil). The data set is classed as cell-based. The note with it: for LD20dark: L1210 cells, absence of light. Here is the method:
The above compounds were also tested for dark toxicity. Dark toxicity refers to the toxicity of the drug to cells in the absence of light. This toxicity is, therefore, not due to singlet oxygen mediated cellular damage.
as §1
Dark cytotoxicity was determined while the plates were wrapped in aluminum foil while under the light source.

The mark [5] stands for this setting: L1210 cells, 1 h exposure without FCS, 1 h illumination, MTT.

Regarding `CC1=C(CCC(=O)O)c2cc3[nH]c(cc4nc(cc5[nH]c(cc1n2)c(C)c5C(C)O)C(C)=C4C(C)O)c(C)c3CCC(=O)O` (stereo not shown) [hematoporphyrin], the “complexed by serum proteins” value with serum proteins is on record as “at least 95%”.
Turning to `C=Cc1c(C)c2cc3nc(cc4[nH]c(cc5nc(cc1[nH]2)C(C)=C5CCC(=O)O)c(CCC(=O)OC)c4C)C1(C)C3=CC=C(C(=O)OC)C1C(=O)OC` (stereo not shown) [BPDMA, reference compound], the LD50 is 0.026 µM in the data set with L1210 cells [1]; 0.026 M and 19 ng/mL in the data set on L1210 cells [1] (setting [5]); 19 ng/mL in the data set on L1210 cells [1] (L1210 cells, 1 h exposure without FCS, 1 h illumination, MTT, listed as BPD-MA). The “times more potent than HpD” value in the data set with tumors [2] is reported as 70. Moreover, the “times more potent than Photofrin™” value with tumors [2] was 45.
As for `Oc1cccc(-c2c3nc(c(-c4cccc(O)c4)c4ccc([nH]4)c(-c4cccc(O)c4)c4nc(c(-c5cccc(O)c5)c5ccc2[nH]5)CC4)C=C3)c1` [Tetra(m-hydroxyphenyl)chlorin], the LD50 in the data set on tumors [3] (in vivo bioassays) is 3 mg/kg. In addition, the “times more effective than HpD in destroying tumors” value with tumors [3] (in vivo) is reported as 25–30. Also, in the data set on tumor, the recurrence is given as 10%; the side effects entry was “extended skin sensitivity, severe chest pains and loss of appetite”; the tumor necrosis is 90%.
As for `Cc1cc(C)c(-c2c3nc(c(-c4c(C)cc(C)cc4C)c4ccc([nH]4)c(-c4c(C)cc(C)cc4C)c4nc(c(-c5c(C)cc(C)cc5C)c5ccc2[nH]5)C(O)C4O)C=C3)c(C)c1` (stereo not shown) [Compound 22, T(o,p,o′-CH3)PC(OH)2], the LD50 in the data set with L1210 cells [1] (setting [5]) is 12.3 M and 10000 ng/mL. Also, in the data set on L1210 cells [1] (L1210 cells, Table 4), the LD50 turned out to be 10000 ng/mL. In the data set with L1210 cells [4], this molecule came in with an LD50dark of 18000 ng/mL and an LD20dark of 7500 ng/mL.
Consider `COc1cc(OC)cc(-c2c3nc(c(-c4cc(OC)cc(OC)c4)c4ccc([nH]4)c(-c4cc(OC)cc(OC)c4)c4nc(c(-c5cc(OC)cc(OC)c5)c5ccc2[nH]5)C(O)C4O)C=C3)c1` (stereo not shown) [Compound 16, T(m,m′-OCH3)PC(OH)2], for which the LD50 in the data set on L1210 cells [1] (setting [5]) is 2.25 M and 2000 ng/mL; in the data set with L1210 cells [1] (L1210 cells, Table 4) it was 2000 ng/mL. In the data set on L1210 cells [4], this molecule showed an LD50dark of 12000 ng/mL. In addition, in the data set on L1210 cells [4], the LD20dark was 5000 ng/mL.
